According to publication PMC9917550, “Discovery of Novel Thiazolidinedione-Derivatives with Multi-Modal Antidiabetic Activities In Vitro and In Silico” (International Journal of Molecular Sciences, 2023):

Tests used:
[1] = molecular target: T1, α-glucosidase (Saccharomyces cerevisiae, UniProt P53341); assay type: biochemical
[2] = molecular target: T2, α-amylase (Sus scrofa, UniProt P00690); test: α-amylase inhibition assay; assay type: biochemical; settings: 10-50 µg/mL, versus control, p < 0.05
T2 sequence (P00690 16-511): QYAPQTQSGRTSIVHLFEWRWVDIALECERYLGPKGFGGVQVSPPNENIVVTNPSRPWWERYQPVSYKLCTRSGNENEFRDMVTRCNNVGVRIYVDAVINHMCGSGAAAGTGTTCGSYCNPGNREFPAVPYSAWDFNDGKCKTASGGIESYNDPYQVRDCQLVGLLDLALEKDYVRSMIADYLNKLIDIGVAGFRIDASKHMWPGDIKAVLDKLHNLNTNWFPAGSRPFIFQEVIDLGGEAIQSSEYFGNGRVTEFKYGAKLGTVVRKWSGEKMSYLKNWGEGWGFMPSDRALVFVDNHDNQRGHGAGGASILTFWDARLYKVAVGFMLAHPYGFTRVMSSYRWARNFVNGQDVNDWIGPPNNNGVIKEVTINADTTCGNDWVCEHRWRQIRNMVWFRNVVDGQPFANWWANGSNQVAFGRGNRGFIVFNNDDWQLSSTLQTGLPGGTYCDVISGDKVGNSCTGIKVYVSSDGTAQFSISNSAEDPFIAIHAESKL
Method: The α-amylase inhibitory activity was determined using the method described by the Worthington Enzyme Manual with slight modifications. The TZD derivatives were assayed at 10, 20, 30, 40, and 50 µg/mL. […] The sodium phosphate buffer was used as a blank. The inhibitory activity was calculated according to the equation:
Inhibition (%) = ((Acontrol − Asample)/Acontrol) × 100%, where Acontrol was the absorbance of the control (without the inhibitor); Asample was the absorbance in the presence of TZD derivatives.

[3] = molecular target: aldose reductase (Homo sapiens, UniProt P15121); test: Aldose reductase inhibition assay; assay type: biochemical; settings: for aldose reductase inhibitory activity (in words): 10-50 µg/mL, versus control, p < 0.05; for IC50: read-out: IC50 for the Inhibitory Activity Assays, AR (converted)
Method: The aldose reductase (AR) inhibition assay was performed according to the method described by Kazeem et al. with minor modifications. All the TZD derivatives were assayed at 10, 20, 30, 40, and 50 µg/mL. […] The absolute standard contained all the reagents used except for the inhibitor compounds. The aldose reductase inhibition activity was calculated as a percentage inhibition from:
(§1) % Inhibition = [(∆Abscontrol − ∆Abssample)/∆Abscontrol] × 100%, where ∆Abs is the change is absorbance.

[4] = molecular target: T3, DPP-4 (Homo sapiens, UniProt P27487); test: Dipeptidyl peptidase-4 inhibition assay (DPP-4 Inhibitor Screening Kit); assay type: biochemical; settings: for DPP-4 inhibitory activity (in words): 10-50 µg/mL, versus control; for IC50: read-out: IC50 for the Inhibitory Activity Assays, DPP-4 (converted); for DPP-4 inhibition: 10, 20, 30, 40 and 50 µg/mL
T3 construct: purchased Sigma-Aldrich MAK203
T3 sequence (P27487 whole entry, species assumed): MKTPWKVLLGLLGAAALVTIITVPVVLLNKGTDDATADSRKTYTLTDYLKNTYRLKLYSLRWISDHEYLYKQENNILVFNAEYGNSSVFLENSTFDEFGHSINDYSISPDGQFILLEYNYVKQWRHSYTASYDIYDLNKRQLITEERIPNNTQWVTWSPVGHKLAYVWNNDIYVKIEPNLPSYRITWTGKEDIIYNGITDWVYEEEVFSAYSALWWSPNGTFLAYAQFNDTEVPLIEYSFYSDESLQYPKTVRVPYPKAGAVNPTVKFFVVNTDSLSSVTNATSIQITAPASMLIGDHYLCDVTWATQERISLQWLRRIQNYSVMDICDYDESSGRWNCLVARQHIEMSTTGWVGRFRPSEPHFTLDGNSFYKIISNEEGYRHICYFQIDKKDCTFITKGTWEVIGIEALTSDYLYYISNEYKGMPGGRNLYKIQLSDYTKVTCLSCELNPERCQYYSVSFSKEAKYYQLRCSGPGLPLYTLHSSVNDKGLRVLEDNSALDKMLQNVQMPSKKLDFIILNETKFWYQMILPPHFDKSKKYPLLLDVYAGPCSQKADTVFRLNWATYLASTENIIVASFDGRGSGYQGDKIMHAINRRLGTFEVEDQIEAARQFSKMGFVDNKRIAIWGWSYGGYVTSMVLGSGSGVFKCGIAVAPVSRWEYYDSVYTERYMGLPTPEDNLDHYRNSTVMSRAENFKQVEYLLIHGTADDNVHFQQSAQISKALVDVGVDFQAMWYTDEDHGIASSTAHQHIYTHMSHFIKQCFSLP
Method: This assay was performed according to the DPP-4 Inhibitor Screening Kit (catalogue number: MAK203) product information (Sigma-Aldrich.com) with minor modifications to the volumes to suit the 96-well plate assay.

[5] = molecular target: T4, protein tyrosine phosphatase-1B (PTP-1B) (Homo sapiens, UniProt P18031); test: Protein tyrosine phosphatase-1B inhibition assay; assay type: biochemical; settings: for PTP-1B inhibitory activity (in words): 10-50 µg/mL, versus control; for IC50: read-out: IC50 for the Inhibitory Activity Assays, PTP-1B (converted)
T4 sequence (P18031 1-435): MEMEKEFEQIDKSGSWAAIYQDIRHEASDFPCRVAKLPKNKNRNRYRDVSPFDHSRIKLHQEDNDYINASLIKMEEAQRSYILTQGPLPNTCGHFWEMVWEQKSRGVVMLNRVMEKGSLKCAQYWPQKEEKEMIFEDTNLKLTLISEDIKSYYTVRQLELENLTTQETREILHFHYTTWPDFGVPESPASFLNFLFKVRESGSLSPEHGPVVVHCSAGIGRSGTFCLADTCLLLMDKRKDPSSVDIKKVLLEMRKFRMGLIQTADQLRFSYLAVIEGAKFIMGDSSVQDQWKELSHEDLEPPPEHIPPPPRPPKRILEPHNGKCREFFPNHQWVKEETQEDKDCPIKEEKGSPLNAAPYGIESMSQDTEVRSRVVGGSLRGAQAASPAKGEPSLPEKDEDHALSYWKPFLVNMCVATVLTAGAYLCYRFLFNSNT
Method: The protein tyrosine phosphatase-1B (PTP-1B) inhibition assay was performed according to the method described by Song et al. with some modifications. […] The absolute control contained all the reagents used except the inhibitor compounds. The inhibition activity was calculated using:
as §1

[6] = tested on: liver cells (HEP-G2); test: Glucose uptake in liver cells; assay type: cell-based; settings: 25, 50 and 100 µg/mL, 24 h, versus control
Method: HEPG-2 liver cells were cultured in MEME supplemented with pen/strep (1%) and FBS (10%) in a […] under tissue culture conditions. Upon confluency (80%), cells were trypsinized and seeded into the 96-well plates. Upon confluency, the cell preparations were exposed to different concentrations (25, 50, and 100 µg/mL) of TZDDs, and a media glucose reading was taken before incubation (time = 0). Thereafter, the plates containing cells and treatments were incubated for 24 h under tissue culture conditions. The non-treated cells and insulin treated cells served as absolute and positive controls, respectively. After a 24 h incubation, the medium glucose was taken using a glucometer. The percentage glucose uptake was calculated as follows:
Glucose uptake (%) = (T24/T0) × 100

[7] = molecular target: T1, α-glucosidase; test: Mode of inhibition of α-glucosidase (Michaelis-Menten, Lineweaver-Burk); assay type: biochemical; settings: substrate pNPG
Method: The Ki values were calculated with GraphPad Prism 9.2.0. (332) by plotting the reciprocal of maximum velocity (1/Vmax) (y-axis) against the derivative concentrations (x-axis). The types of inhibition parameters were all calculated with GraphPad Prism 9.2.0. Briefly, 30 µL of α-glucosidase enzyme (0.5 IU/mL) was dissolved in the 0.02 M phosphate buffer (pH 6.9), and then was pre-incubated at 37 °C with the above-mentioned derivative (50 µL) in a 96-well plate, for 5 min. In sequence, pNPG (0.125, 0.250, 0.500, 0.750, 1.000, 1.500, 2.000, 2.500, and 5.000 mM) was added and incubated in the reaction mixture at 37 °C for 30 min.

T1 sequence (P53341 whole entry): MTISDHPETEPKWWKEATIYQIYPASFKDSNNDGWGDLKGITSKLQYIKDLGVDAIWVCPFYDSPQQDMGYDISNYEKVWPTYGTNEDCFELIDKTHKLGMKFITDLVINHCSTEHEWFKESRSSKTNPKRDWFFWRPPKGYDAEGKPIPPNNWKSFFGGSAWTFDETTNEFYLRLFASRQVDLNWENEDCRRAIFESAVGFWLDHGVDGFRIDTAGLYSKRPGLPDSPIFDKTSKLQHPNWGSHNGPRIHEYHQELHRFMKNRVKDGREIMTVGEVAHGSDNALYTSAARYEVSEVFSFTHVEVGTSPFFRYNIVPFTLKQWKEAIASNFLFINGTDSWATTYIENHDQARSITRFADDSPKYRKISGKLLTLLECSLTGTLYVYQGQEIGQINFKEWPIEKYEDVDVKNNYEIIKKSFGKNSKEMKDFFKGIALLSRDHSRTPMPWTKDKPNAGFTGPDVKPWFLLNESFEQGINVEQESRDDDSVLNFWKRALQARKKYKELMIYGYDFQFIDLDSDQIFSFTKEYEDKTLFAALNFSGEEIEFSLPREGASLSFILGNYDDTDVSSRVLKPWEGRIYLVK

Compound	α-glucosidase inhibitory activity (in words) [1]	α-amylase inhibitory activity (in words) [2]	aldose reductase inhibitory activity (in words) [3]	DPP-4 inhibitory activity (in words) [4]	IC50 [4]	IC50 for the Inhibitory Activity Assays, PTP-1B [5]	PTP-1B inhibitory activity (in words) [5]	IC50 [3]	Effect on glucose uptake [6]	DPP-4 inhibition [4]	IC50 [5]	Vmax ([7]; TZDD3 at 60 µg/mL)	Vmax ([7]; TZDD3 at 120 µg/mL)
C[C@H]1O[C@H](O[C@H]2[C@H](O)[C@@H](O)[C@@H](O[C@H]3[C@H](O)[C@@H](O)C(O)O[C@@H]3CO)O[C@@H]2CO)[C@H](O)[C@@H](O)[C@@H]1N[C@H]1C=C(CO)[C@@H](O)[C@H](O)[C@H]1O (stereo partly drawn) [Acarbose, reference compound]	significant (p < 0.05) inhibitory activity	significant (p < 0.05) inhibitory activity											
O=c1c(O)c(-c2ccc(O)c(O)c2)oc2cc(O)cc(O)c12 [Quercetin, reference compound]			significant (p < 0.05) inhibitory activity										
COc1cc(OC)c(/C=C2/SC(=O)N(CC(=O)N3CCN(c4ccccc4)CC3)C2=O)c(OC)c1 [TZDD1, (E)-5-(2,4,6-trimethoxybenzylidene)-3-(2-oxo-2-(4-phenylpiperazin-1-yl)ethyl)thiazolidine-2,4-dione]		showed inhibitory activity	concentration-dependent inhibitory activity	very weak inhibitory activity	147 µM	unstable	weak inhibitory activity	55.3 µM					
Cc1cc(/C=C2\SC(=O)N(CC(=O)N3CCCC3)C2=O)c(C)n1-c1ccccc1 [TZDD2, (Z)-5-((2,5-Dimethyl-1phenyl-1H-pyrrol-3-yl)methylene)-3-(2-oxo-2-(pyrrolidin-1-yl)ethyl)thiazolidine-2,4-dione]		showed inhibitory activity		relatively higher activity	78 µM		weak inhibitory activity	201 µM	increase glucose uptake	≥ 20%	334 µM		
Cc1cc(/C=C2\SC(=O)N(CC(=O)O)C2=O)c(C)n1-c1ccccc1 [TZDD3, (Z)-2-(5-((2,5-Dimethyl-1-phenyl-1H-pyrrol-3-yl)methylene)-2,4-dioxothiazolidin-3-yl)acetic Acid]		concentration-dependent inhibitory activity	decreasing inhibition activity	very weak inhibitory activity	213 µM	unstable		161 µM				59.43	32.76
Cc1cc(/C=C2/S/C(=N\c3ccccc3)NC2=O)c(C)n1-c1ccccc1 [TZDD4, (2Z,5E)-5-((2,5-dimethyl-1-phenyl-1H-pyrrol-3-yl)methylene)-2-(phenylimino)thiazolidin-4-one]		showed inhibitory activity			192 µM		weak inhibitory activity	98.5 µM		≥ 20%	693 µM		
insulin									enhanced glucose uptake				
